According to patent US11541029B2, “High penetration compositions and their applications” (Techfields Pharma Co., Ltd., priority 2008, dated 2023):

Legend:
[1] = test system: carotid artery thrombosis; test: Thrombosis/stroke induced by electrical stimulation of carotid artery; type: in vivo, rats (Spragu Dawley)
Procedure: Thrombosis was induced by electrical stimulation (1 mA for 3 minutes) of the carotid artery in rats by using a thrombosis formation instrument (YLS-14A, Shandong Academy of Medical Sciences, Shandong, China). […] In group B, 100 mg/kg of diethylaminoethyl acetylsalicylate.HCl salt (10% in water) was applied to the shaved back skin of the rats (˜9 cm^2, fur was cut off) 2 hour before the operation and 1 hour after the operation, then 50 mg/kg of the HPC was applied to the back of the rats twice per day. In group C, 50 mg/kg of diethylaminoethyl acetylsalicylate.HCl was applied to the back of the rats twice per day starting from 24 hours after the operation. The recovery of motor functions of rats was evaluated every day.

[2] = test system: Human colon cancer cells (LS174J); test: Human colon cancer xenograft in nude mice
Description: Human colon cancer cells (LS174J, 2-3 mm^3 of tumor tissue was used in each mouse) were subcutaneously xenografted into nude mice (BALB).

SLAC/MRL/LPR mice = test: Lupus in MRL/LPR mice treated from 8 weeks old, 30 mg/kg (10% aq.) on back skin twice per day; type: in vivo
Procedure: . Progression of lupus was monitored once a week by measurement of hematuria, body weight and survival rate. The experiments were carried out in two groups of mice. One group of mice were 8 weeks old and had not shown SLE characteristics (Table 26a). The other group of mice were 16 weeks old, and had shown SLE characteristics (Table 26b).

[3] = group B: 100 mg/kg 2 hour before and 1 hour after operation, then 50 mg/kg twice per day
[4] = group C: 50 mg/kg twice per day starting 24 hours after the operation

CCN(CC)CCOC(=O)c1ccccc1OC(C)=O.Cl [P-1, diethylaminoethyl acetylsalicylate.HCl salt]
Stroke-free rats (2 hours) [1, 3]: 8/10 | Stroke-free rats (1 day) [1, 3]: 9/10 | Stroke-free rats (7 days) [1, 3]: 10/10 | Stroke-free rats (3 hrs) [1, 4]: 0/10 | Stroke-free rats (2 day) [1, 4]: 4/10 | Stroke-free rats (7 day) [1, 4]: 9/10 | Stroke-free rats (14 days) [1, 4]: 10/10 | Weight Loss (3 days) [1, 4]: −13 +/− 7% | Weight Loss (7 days) [1, 4]: −7 +/− 4% | Weight Loss (14 days) [1, 4]: −4 +/− 2% | bleeding problem ([1]; post-stroke treatment): without bleeding problem | tumor Size at day 30 ([2]; about 50 μl of 5% topically every 12 hours): 480 ± 130 mm^3 | Weight of mice at day 30 ([2]; in vivo): 23 ± 3 | Body Weight (SLAC/MRL/LPR mice; week 8): 30.5 ± 2.6 g | Hematuria (0-4) (SLAC/MRL/LPR mice; week 8): 0 | Survival Rate (SLAC/MRL/LPR mice; week 8): 10/10 | Body Weight (SLAC/MRL/LPR mice; week 9): 33.5 ± 2.1 g | Hematuria (0-4) (SLAC/MRL/LPR mice; week 9): 0 | Survival Rate (SLAC/MRL/LPR mice; week 9): 10/10 | Body Weight (SLAC/MRL/LPR mice; week 10): 36.2 ± 2.7 g | Hematuria (0-4) (SLAC/MRL/LPR mice; week 10): 0 | Survival Rate (SLAC/MRL/LPR mice; week 10): 10/10 | Body Weight (SLAC/MRL/LPR mice; week 11): 39.9 ± 2.1 g | Hematuria (0-4) (SLAC/MRL/LPR mice; week 11): 0 | Survival Rate (SLAC/MRL/LPR mice; week 11): 10/10 | Body Weight (SLAC/MRL/LPR mice; week 12): 42.7 ± 2.3 g | Hematuria (0-4) (SLAC/MRL/LPR mice; week 12): 0 | Survival Rate (SLAC/MRL/LPR mice; week 12): 10/10 | Body Weight (SLAC/MRL/LPR mice; week 13): 44.7 ± 2.4 g | Hematuria (0-4) (SLAC/MRL/LPR mice; week 13): 0 | Survival Rate (SLAC/MRL/LPR mice; week 13): 10/10 | Body Weight (SLAC/MRL/LPR mice; week 14): 47.1 ± 1.8 g | Hematuria (0-4) (SLAC/MRL/LPR mice; week 14): 0 | Survival Rate (SLAC/MRL/LPR mice; week 14): 10/10 | Body Weight (SLAC/MRL/LPR mice; week 15): 48.9 ± 2.6 g | Hematuria (0-4) (SLAC/MRL/LPR mice; week 15): 0 | Survival Rate (SLAC/MRL/LPR mice; week 15): 10/10 | Body Weight (SLAC/MRL/LPR mice; week 16): 49.6 ± 2.1 g | Hematuria (0-4) (SLAC/MRL/LPR mice; week 16): 0 | Survival Rate (SLAC/MRL/LPR mice; week 16): 10/10 | Body Weight (SLAC/MRL/LPR mice; week 17): 50.2 ± 2.5 g | Hematuria (0-4) (SLAC/MRL/LPR mice; week 17): 0 | Survival Rate (SLAC/MRL/LPR mice; week 17): 10/10 | Body Weight (SLAC/MRL/LPR mice; week 18): 50.6 ± 2.4 g | Hematuria (0-4) (SLAC/MRL/LPR mice; week 18): 0 | Survival Rate (SLAC/MRL/LPR mice; week 18): 10/10 | Body Weight (SLAC/MRL/LPR mice; week 19): 50.9 ± 2.3 g | Hematuria (0-4) (SLAC/MRL/LPR mice; week 19): 0 | Survival Rate (SLAC/MRL/LPR mice; week 19): 10/10 | Body Weight (SLAC/MRL/LPR mice; week 20): 51.1 ± 2.0 g | Hematuria (0-4) (SLAC/MRL/LPR mice; week 20): 0 | Survival Rate (SLAC/MRL/LPR mice; week 20): 10/10 | Body Weight (SLAC/MRL/LPR mice; week 21): 50.9 ± 2.3 g | Hematuria (0-4) (SLAC/MRL/LPR mice; week 21): 0 | Survival Rate (SLAC/MRL/LPR mice; week 21): 10/10 | Body Weight (SLAC/MRL/LPR mice; week 22): 50.4 ± 2.2 g | Hematuria (0-4) (SLAC/MRL/LPR mice; week 22): 0 | Survival Rate (SLAC/MRL/LPR mice; week 22): 10/10 | Body Weight (SLAC/MRL/LPR mice; week 23): 50.9 ± 2.1 g | Hematuria (0-4) (SLAC/MRL/LPR mice; week 23): 0 | Survival Rate (SLAC/MRL/LPR mice; week 23): 10/10 | Body Weight (SLAC/MRL/LPR mice; week 24): 51.2 ± 2.5 g | Hematuria (0-4) (SLAC/MRL/LPR mice; week 24): 0 | Survival Rate (SLAC/MRL/LPR mice; week 24): 10/10 | Body Weight (SLAC/MRL/LPR mice; week 25): 50.8 ± 2.2 g | Hematuria (0-4) (SLAC/MRL/LPR mice; week 25): 0 | Survival Rate (SLAC/MRL/LPR mice; week 25): 10/10 | Body Weight (SLAC/MRL/LPR mice; week 26): 50.7 ± 2.6 g | Hematuria (0-4) (SLAC/MRL/LPR mice; week 26): 0 | Survival Rate (SLAC/MRL/LPR mice; week 26): 10/10 | Body Weight (SLAC/MRL/LPR mice; week 27): 50.3 ± 2.1 g | Hematuria (0-4) (SLAC/MRL/LPR mice; week 27): 0 | Survival Rate (SLAC/MRL/LPR mice; week 27): 10/10 | Body Weight (SLAC/MRL/LPR mice; week 28): 50.6 ± 2.0 g | Hematuria (0-4) (SLAC/MRL/LPR mice; week 28): 0 | Survival Rate (SLAC/MRL/LPR mice; week 28): 10/10 | Body Weight (SLAC/MRL/LPR mice; week 29): 50.1 ± 2.0 g | Hematuria (0-4) (SLAC/MRL/LPR mice; week 29): 0 | Survival Rate (SLAC/MRL/LPR mice; week 29): 10/10 | Body Weight (SLAC/MRL/LPR mice; week 30): 49.8 ± 2.1 g | Hematuria (0-4) (SLAC/MRL/LPR mice; week 30): 0 | Survival Rate (SLAC/MRL/LPR mice; week 30): 10/10 | Body Weight (SLAC/MRL/LPR mice; week 31): 50.4 ± 1.9 g | Hematuria (0-4) (SLAC/MRL/LPR mice; week 31): 0 | Survival Rate (SLAC/MRL/LPR mice; week 31): 10/10 | Body Weight (SLAC/MRL/LPR mice; week 32): 50.8 ± 2.0 g | Hematuria (0-4) (SLAC/MRL/LPR mice; week 32): 0 | Survival Rate (SLAC/MRL/LPR mice; week 32): 10/10 | Body Weight (SLAC/MRL/LPR mice; week 33): 50.6 ± 2.1 g | Hematuria (0-4) (SLAC/MRL/LPR mice; week 33): 0 | Survival Rate (SLAC/MRL/LPR mice; week 33): 10/10 | Body Weight (SLAC/MRL/LPR mice; week 34): 50.8 ± 2.3 g | Hematuria (0-4) (SLAC/MRL/LPR mice; week 34): 0 | Survival Rate (SLAC/MRL/LPR mice; week 34): 10/10 | Body Weight (SLAC/MRL/LPR mice; week 35): 50.3 ± 2.4 g | Hematuria (0-4) (SLAC/MRL/LPR mice; week 35): 0 | Survival Rate (SLAC/MRL/LPR mice; week 35): 10/10 | Body Weight (SLAC/MRL/LPR mice; week 36): 50.7 ± 2.3 g | Hematuria (0-4) (SLAC/MRL/LPR mice; week 36): 0 | Survival Rate (SLAC/MRL/LPR mice; week 36): 10/10 | Body Weight (SLAC/MRL/LPR mice; week 37): 50.9 ± 2.0 g | Hematuria (0-4) (SLAC/MRL/LPR mice; week 37): 0 | Survival Rate (SLAC/MRL/LPR mice; week 37): 10/10 | Body Weight (SLAC/MRL/LPR mice; week 38): 51.1 ± 2.6 g | Hematuria (0-4) (SLAC/MRL/LPR mice; week 38): 0 | Survival Rate (SLAC/MRL/LPR mice; week 38): 10/10 | Body Weight (SLAC/MRL/LPR mice; week 39): 50.6 ± 2.2 g | Hematuria (0-4) (SLAC/MRL/LPR mice; week 39): 0 | Survival Rate (SLAC/MRL/LPR mice; week 39): 10/10 | Body Weight (SLAC/MRL/LPR mice; week 40): 50.7 ± 2.0 g | Hematuria (0-4) (SLAC/MRL/LPR mice; week 40): 0 | Survival Rate (SLAC/MRL/LPR mice; week 40): 10/10 | Body Weight (SLAC/MRL/LPR mice; week 41): 51.2 ± 2.1 g | Hematuria (0-4) (SLAC/MRL/LPR mice; week 41): 0 | Survival Rate (SLAC/MRL/LPR mice; week 41): 10/10 | Body Weight (SLAC/MRL/LPR mice; week 42): 51.1 ± 2.6 g | Hematuria (0-4) (SLAC/MRL/LPR mice; week 42): 0 | Survival Rate (SLAC/MRL/LPR mice; week 42): 10/10 | Body Weight (SLAC/MRL/LPR mice; week 43): 50.7 ± 2.2 g | Hematuria (0-4) (SLAC/MRL/LPR mice; week 43): 0 | Survival Rate (SLAC/MRL/LPR mice; week 43): 10/10 | Body Weight (SLAC/MRL/LPR mice; week 44): 50.3 ± 2.6 g | Hematuria (0-4) (SLAC/MRL/LPR mice; week 44): 0 | Survival Rate (SLAC/MRL/LPR mice; week 44): 10/10 | Body Weight (SLAC/MRL/LPR mice; week 45): 50.7 ± 2.0 g | Hematuria (0-4) (SLAC/MRL/LPR mice; week 45): 0 | Survival Rate (SLAC/MRL/LPR mice; week 45): 10/10 | Body Weight (SLAC/MRL/LPR mice; week 46): 50.6 ± 2.3 g | Hematuria (0-4) (SLAC/MRL/LPR mice; week 46): 0 | Survival Rate (SLAC/MRL/LPR mice; week 46): 10/10 | Body Weight (SLAC/MRL/LPR mice; week 47): 50.1 ± 2.0 g | Hematuria (0-4) (SLAC/MRL/LPR mice; week 47): 0 | Survival Rate (SLAC/MRL/LPR mice; week 47): 10/10 | Body Weight (SLAC/MRL/LPR mice; week 48): 50.3 ± 2.5 g | Hematuria (0-4) (SLAC/MRL/LPR mice; week 48): 0 | Survival Rate (SLAC/MRL/LPR mice; week 48): 10/10 | Body Weight (SLAC/MRL/LPR mice; week 49): 50.7 ± 2.4 g | Hematuria (0-4) (SLAC/MRL/LPR mice; week 49): 0 | Survival Rate (SLAC/MRL/LPR mice; week 49): 10/10 | Body Weight (SLAC/MRL/LPR mice; week 50): 51.2 ± 2.1 g | Hematuria (0-4) (SLAC/MRL/LPR mice; week 50): 0 | Survival Rate (SLAC/MRL/LPR mice; week 50): 10/10
